Results taken from patent publication US20260062441A1, “TUMOR-SEEKING GLUCOSE-DENDRONS FOR THE DELIVERY OF CHEMOTHERAPEUTICS AND IMAGING AGENT TO CANCER CELLS” (THE BOARD OF TRUSTEES OF THE UNIVERSITY OF ILLINOIS, priority 2022, published 2026).

Tests used:
[1] = chloroform; cited from earlier work
[2] = Log D7.4 measurements (octanol/PBS partition); assay type: physicochemical; conditions: octanol/PBS pH 7.4
Method: Log D7.4 Measurements. Log D measurements were conducted in technical triplicate and 5 experimental replicates. Samples at a known concentration (n=3) were added to Eppendorf tubes containing PBS (pH=7.4, 500 μL) and octanol (500 μL). The Eppendorf tubes were each vortexed for 30 seconds and subsequently subjected to microcentrifuge for 1 minute. Then the PBS and octanol layers were pipetted into a clear 96-well plate. The absorbance values were taken using a SpectraMax M2 plate reader. The log of (dye absorbance in octanol/dye absorbance in PBS) was calculated and averaged across different concentrations to generate the log D7.4.

[3] = Photophysical characterization; assay type: physicochemical; conditions: for ε / λabs / λem: 3:7 v/v MeCN:PBS (pH=7.4); for PABF: PA Brightness Factor; for Φ: relative to dimethoxy aza-BODIPY
Method: Photophysical Characterization. Extinction coefficients and fluorescence quantum yields were acquired in experimental triplicates. Extinction coefficients were measured by performing serial dilutions of the compounds in 3:7 v/v MeCN:PBS (pH=7.4) within the linear range (absorbance values between 0.05-1.5). Reported fluorescence quantum yields are relative quantum yields compared to dimethoxy aza-BODIPY (Φ=0.36, chloroform). The compounds were titrated into acetonitrile or 3:7 MeCN/PBS (pH=7.4) such that their absorbance values were kept below 0.1 to prevent secondary absorbance events. The refractive index of 3:7 v/v MeCN:PBS (pH=7.4) was measured to be 1.343. Characterization of mvpCu and t-mvpCu were conducted in 1:1 v/v DMF:HEPES (50 mM, pH=7.4).

[4] = system: 4T1 orthotopic breast cancer; assay: In vivo PA imaging with mvGlu-AB2; set-up: species or system BALB/c mice; conditions: 6 hr, spectral unmixing
Method: In Vivo Imaging. Before all imaging, hair on the bottom half of mice were removed via an electric razor and depilatory cream. In both FL and PA imaging, a background scan was taken of each mouse before injection. For PA imaging experiments, mice were allowed to equilibrate in the water tank for 10 min, and all scans were collected on H2O mode at 34° C. PA Imaging with mvGlu-AB2. 4T1 cells were trypsinized, neutralized with growth media, and counted on a Countess II FL Cell Counter (Invitrogen, Thermo Fisher Scientific). Cells were spun down, media was aspirated, and a solution was made in 1:1 serum-free RPMI media to Geltrex™ LDEV-Free, hESC-Qualified, Reduced Growth Factor Basement Membrane Matrix. Mice were injected in the mammary fat pad with 250,000 cells (50 μL) of the cell solution. Tumors grew for around 1.5-2 weeks and the mice were imaged once tumors reached 100 mm^3. mvGluAB-2 was reconstituted in 0.9% saline (5% DMSO) and injected retroorbitally. PA images were taken at timepoints=0 and 6 hours in 5 nm increments from 660-700 nm. Images were spectrally unmixed from hemoglobin, deoxyhemoglobin, and melanin (n=4).

4T1 cells = assay: MTT cytotoxicity assay; assay type: cell-based, murine; conditions: 4T1, up to 15 μM, 6-hour incubation
Method: (§1) MTT Cytotoxicity Assay. A 96-well plate was seeded with 30,000 cells per well and incubated at 37° C. with 5% CO2 for 24-48 hours (˜70% confluent). The media was removed and replaced with fresh serum-free medium (200 μL) containing vehicle control (DMSO) or dye (4, 6, 10, or 15 μM). After 4 hours, the media was removed and replaced with a 20:1 mixture of PBS and (3-(4,5-dimethylthiazol-2-yl)-2,5-diphenyl-tetrazolium bromide (MTT, 5 mg/mL stock in PBS). The cells were incubated for 2 hours under the same conditions, and then the media was removed, replaced with DMSO (200 μL), and the absorbance of each well was recorded at 555 nm on a SpectraMax M2 plate reader. Percent viability was calculated relative to the vehicle control (n=8).

A549 cells = assay: MTT cytotoxicity assay; assay type: cell-based, human; conditions: A549, up to 15 μM, 6-hour incubation
Method: as §1

[5] = system: 4T1 orthotopic breast cancer; assay: In vivo fluorescence imaging of tumor-bearing mice; set-up: species or system BALB/c mice; conditions: for fluorescence signal enhancement of the tumor site relative to initial background scan: 1.2 mg/kg retroorbital
Method: In Vivo Imaging. Before all imaging, hair on the bottom half of mice were removed via an electric razor and depilatory cream. In both FL and PA imaging, a background scan was taken of each mouse before injection. For PA imaging experiments, mice were allowed to equilibrate in the water tank for 10 min, and all scans were collected on H2O mode at 34° C.
Fluorescence Imaging with mvGlu-AB2 and mvGlu-AB3. 4T1 cells were trypsinized, neutralized with growth media, and counted on a Countess II FL Cell Counter (Invitrogen, Thermo Fisher Scientific). Cells were spun down, media was aspirated, and a solution was made in 1:1 serum-free RPMI media to VitroGel® hydrogel. Mice were injected in the mammary fat pad with 300,000 cells (50 μL) of the cell solution. Tumors grew for around 1.5-2 weeks and the mice were imaged once tumors reached 100 mm^3. Dyes (1.2 mg/kg) were dissolved in 0.9% saline (5% DMSO) and injected retroorbitally. Mice were imaged using the CRi Maestro In-Vivo Fluorescence Imaging System at timepoints=0, 6, 8, 12, 16, 24, and 48 hours. Excitation occurred at 680 nm, and light was collected from 690-850 nm (n=3).

[6] = system: A549 human lung cancer cells; assay: Cellular uptake studies (epifluorescence imaging); assay type: cell-based
Method: Cell Culture. A549 lung cancer cells and 4T1 murine breast cancer cells were acquired from ATCC. A549 cells were cultured in Ham's F-12K Medium containing 10% FBS and 1% penicillin streptomycin solution, and 4T1 cells were cultured in RPMI-1640 Medium containing 10% FBS and 1% penicillin streptomycin solution. Cells were incubated at 37° C. with 5% CO2. Experiments were performed in 8-well plates (Nuc Lab-Tek Chambered Coverglass, Thermo Scientific) or 96-well plates (Nuclon Delta Surface Flat Bottom, Thermo Scientific).
Cellular Uptake Studies. 8-well borosilicate plates were prepared with poly-L-Lysine coating and seeded with 50,000 cells per well and incubated at 37° C. with 5% CO2 for 24 hours (˜60% confluent). Serum-free media containing mvGlu-AB2 (2 μM), 15 mM Glucose, mvGlu-AB2 (2 μM)+15 mM Glucose, L-mvGlu-AB2 (2 μM), dimethoxy aza-BODIPY (2 μM), or vehicle (DMSO) were prepared. Competition glucose wells were preincubated with 15 mM glucose in serum-free media for 30 minutes. […] The media was removed and replaced with PBS. Cells were imaged using an EVOS FL epifluorescence microscope with a Cy7 filter cube. Four experimental replicates and 3 technical replicates were taken.
Quantification of Cell Imaging Data. In FIJI (ImageJ), ROIs were drawn around representative cells and the integrated density (area×mean gray value) was measured. The total cell fluorescence was calculated by subtracting the integrated density of the cell by the background integrated fluorescence. Technical replicates (n=3) in each well were quantified as the average of 3 cells. Values are reported as the average (+SD) of […] (n=4). Colocalization Studies with mvGlu-AB2. 8-well borosilicate plates were prepared with poly-L-Lysine coating and seeded with 45,000 cells per well and incubated at 37° C. with 5% CO2 for 24 hours (˜60% confluent). Serum-free media containing mvGlu-AB2 (1 μM) was prepared. Cells were incubated for 30 minutes with mvGlu-AB2. The cells were washed 1× with PBS and incubated with the relevant organelle tracker according to the manufacturer recommended protocol. Following incubation with tracker, the cells were washed 1× with PBS. Cells were imaged using an EVOS FL epifluorescence microscope. Lysotracker® Green and Mitotracker® Green were imaged using a GFP filter cube, DAPI was imaged using a DAPI filter cube, and mvGlu-AB2 was image with a Cy7 filter cube. Four experimental replicates and 3 technical replicates were taken.

logD7.4 ([2]; Table 2)	logD7.4 [2]	extinction coefficient ε [3]	ε ([3]; Table 1b)	λabs ([3]; Table 1b)	λem ([3]; Table 1b)	PABF ([3]; Table 1b)	Φ ([3]; Table 1b)	ε ([3]; Table 2)	λabs ([3]; Table 2)	λem ([3]; Table 2)	PABF ([3]; Table 2)	Φ ([3]; Table 2)	Compound	further results
2.51 ± 0.92	2.51±0.92	3000 M⁻¹ cm⁻¹	3400 M/cm	689 nm	710 nm	0.34 ×10^4	0.014	3400 M/cm	689 nm	710 nm	0.34 × 10^4	0.014	COc1ccc(C2=[N+]3C(=Nc4c(-c5ccccc5)cc(-c5ccc(OC)cc5)n4[B-]3(F)F)C(c3ccccc3)=C2)cc1 [AB-OMe2, reference compound]	fluorescence quantum yield Φ of reference standard [1]: 0.36
−1.12 ± 0.16	−1.12±0.16	26000 M⁻¹ cm⁻¹	26000 M/cm	679 nm	710 nm	2.1 ×10^4	0.19	26000 M/cm	679 nm	710 nm	2.1 × 10^4	0.19	CO[B-]1(OC)n2c(-c3ccc(OCc4cn(C(COC5OC(CO)C(O)C(O)C5O)COC5OC(CO)C(O)C(O)C5O)nn4)cc3)cc(-c3ccccc3)c2N=C2C(c3ccccc3)=CC(c3ccc(OCc4cn(C(COC5OC(CO)C(O)C(O)C5O)COC5OC(CO)C(O)C(O)C5O)nn4)cc3)=[N+]21 (centres unmarked) [mvGlu-AB2]	PA signal difference of tumor prior to and after injection [4]: 4.1 fold; cell viability (MTT) (4T1 cells): no loss in cell viability; cell viability (MTT) (A549 cells): no loss in cell viability; fluorescence signal enhancement of the tumor site relative to initial background scan ([5]; after 8 hours): ~2 fold; low dye concentration at which a clear fluorescent signature was apparent ([6]; A549): 50 nM; brighter than cells treated with l-mvGlu isomer ([6]; A549, 2 μM): 3 fold; signal intensity higher when glucose was absent ([6]; A549, dye 2 μM, vs pre-incubation with glucose 15 mM): 2 fold; fluorescence signal intensity brighter than AB-OMe2-treated cells ([6]; A549, imaged after 20 minutes): > 1000 fold; ε higher than AB-OMe2 ([3]; ratio to AB-OMe2): 8.7 fold
−0.71 ± 0.11	−0.71±0.11	–	24000 M/cm	681 nm	712 nm	1.7 ×10^4	0.31	24000 M/cm	681 nm	712 nm	1.7 × 10^4	0.31	COc1ccc(C2=[N+]3C(=Nc4c(-c5ccc(OCc6cn(C(COC7OC(CO)C(O)C(O)C7O)COC7OC(CO)C(O)C(O)C7O)nn6)cc5)cc(-c5ccc(OC)cc5)n4[B-]3(OC)OC)C(c3ccc(OCc4cn(C(COC5OC(CO)C(O)C(O)C5O)COC5OC(CO)C(O)C(O)C5O)nn4)cc3)=C2)cc1 (centres unmarked) [mvGlu-AB3]	in vivo imaging results compared with mvGlu-AB2 ([5]; FIGS. 17-18): comparable; fluorescence signal enhancement of the tumor site relative to initial background scan ([5]; after 12 hours): ~2 fold

Compound	logD7.4 ([2]; Table 2)	logD7.4 [2]	extinction coefficient ε [3]	ε ([3]; Table 1b)	λabs ([3]; Table 1b)	λem ([3]; Table 1b)	PABF ([3]; Table 1b)	Φ ([3]; Table 1b)	ε ([3]; Table 2)	λabs ([3]; Table 2)	λem ([3]; Table 2)	PABF ([3]; Table 2)	Φ ([3]; Table 2)	further results
COc1ccc(-c2cc(-c3ccccc3)c3n2[B-](OC)(OC)[N+]2=C(c4ccc(OCc5cn(C(COC6OC(CO)C(O)C(O)C6O)COC6OC(CO)C(O)C(O)C6O)nn5)cc4)C=C(c4ccccc4)C2=N3)cc1 (centres unmarked) [mvGlu-AB1]	0.75 ± 0.02	0.75±0.02	–	18000 M/cm	675 nm	710 nm	1.6 ×10^4	0.10	18000 M/cm	675 nm	710 nm	1.6 × 10^4	0.10	–
